Experiments:
[1] = system: Human pancreatic cancer cell Suit 2; experiment: Tumor size in mice transplanted subcutaneously with Suit 2 (Test Example 1); type: in vivo; details: after 4 weeks from the starting of treatment; extract 0.5% (w/w) in feed, bevacizumab 5 mg/kg i.p. once a week, gemcitabine 100 mg/kg i.p. twice a week
Protocol: (§1) Human pancreatic cancer cell Suit 2 (1×10^6 cells) was transplanted subcutaneously to BALB/cAJc1-nu/nu mice (CLEA Japan, Inc.) . On 21th day after the transplantation, the transplanted mice were divided into 4 groups, that is, (a) an untreated group, (b) a group to which a Burdock Fruit extract was administered, (c) a group to which bevacizumab was administered, and (d) a group to which gemcitabine was administered, and the treatment was continued for 4 weeks. The Burdock Fruit extract of Example 1 was mixed into feed at a rate of 0.5% (w/w) and the resultant was given to mice. The ingestion of feed was 3 to 5 g a day for a mouse, from which the intake of arctigenin was calculated as […]. Bevacizumab, as Avastin 100 mg/4 ml for intravenous injection (Chugai Pharm. Co.) , was intraperitoneally injected at a dose of 5 mg/kg once a week. As gemcitabine, an intravenous drip preparation of gemcitabine (Eli Lilly and Co.) was intraperitoneally injected at a dose of 100 mg/kg twice a week.
The average tumor size after 4 weeks from the starting of treatment in the respective groups was as follows: (a) 228 mm^2 in the untreated group; (b) 189 mm^2 in the Burdock Fruit extract administered group; (c) 56 mm^2 in the bevacizumab administered group to which was; and (d) 68 mm^2 in the gemcitabine administered group.

[2] = system: Human pancreatic cancer cell Suit 2; experiment: Uptake of gadolinium DTPA in tumor tissue by MRI, blood stream in tumor (Test Example 1); type: in vivo, mice; details: after intravenous injection of gadolinium DTPA; after 4 weeks of treatment
Protocol: as §1
After 4 weeks from the starting of treatment, the uptake of gadolinium DTPA in the mouse tumor tissue was evaluated in the respective groups. […] From this photograph the signal intensity of gadolinium DTPA in the tumor tissue was measured. […]

[3] = system: Human pancreatic cancer cells Miapaca-2; experiment: Tumor weight in mice transplanted subcutaneously with Miapaca-2 (Test Example 3); type: in vivo; details: after 4 weeks; extract 250 mg/kg oral 5 times a week, gemcitabine 150 mg/kg i.p. twice a week
Protocol: Human pancreatic cancer cells Miapaca-2 (ATCC CRL 1420) (5×10^6 cells/200 μl) were transplanted subcutaneously under the armpit of BALB/cAJcl nu/nu mice (CLEA Japan, Inc.) . After feeding for about 2-3 weeks, those of which cancer grew to about 100 mm^3 were selected and employed as the subject mice to be treated. The subject mice of treatment were divided into 4 groups, that is, (a) an untreated group, (b) a group administered gemcitabine, (c) a group administered a Burdock Fruit extract, and (d) a group administered in combination with a Burdock Fruit extract and gemcitabine (combined administration group), and the treatment was continued for 4 weeks. […] After termination of the therapeutic test, the tumor weight was measured in the respective groups.

[4] = system: Human pancreatic cancer cells Miapaca-2; experiment: Proportion of the cancer stem cells in tumor by flow cytometry, Miapaca-2 (Test Example 3); type: in vivo, mice; details: after the therapeutic test (4 weeks)
Protocol: Human pancreatic cancer cells Miapaca-2 (ATCC CRL 1420) (5×10^6 cells/200 μl) were transplanted subcutaneously under the armpit of BALB/cAJcl nu/nu mice (CLEA Japan, Inc.) . After feeding for about 2-3 weeks, those of which cancer grew to about 100 mm^3 were selected and employed as the subject mice to be treated.
The subject mice of treatment were divided into 4 groups, that is, (a) an untreated group, (b) a group administered gemcitabine, (c) a group administered a Burdock Fruit extract, and (d) a group administered in combination with a Burdock Fruit extract and gemcitabine (combined administration group), and the treatment was continued for 4 weeks. The Burdock Fruit extract, 250 mg/kg prepared in Example 1 (25 mg/kg or more as arctigenin), was orally administered everyday (for 5 times a week). As gemcitabine, an intravenous drip preparation of gemcitabine (Eli Lilly and Co.) was used, and 150 mg/kg was intraperitoneally given twice a week.
The cancer cells were recovered from the tumor tissue after termination of the treatment test, and using the triple positive markers, CD24, CD44 and ESA (CD326) as well as the double positive markers, CD133 and CD44, and the proportion of CD44^+, CD24^+, CD326^+ cells (triple positive) and CD133^+, CD44^+ cells (double positive) was evaluated. In the evaluation, a FACS ARIA II flow cytometer (BD bioscience) was used.

[5] = system: Human pancreas cancer cells Miapaca-2 cells; experiment: Survival in orthotopic graft model of pancreas cancer (Test Example 4); type: in vivo, mice
Protocol: Human pancreas cancer cells Miapaca-2 cells were suspended in a highly concentrated Matrigel solution (BD bioscience) at 5×10^6 cells/50 μl. A female BALB/cAJcl-nu/nu mice (8 weeks of age) (CLEA Japan, Inc.) were subjected to laparotomy under anesthesia, the above-prepared cell suspension was poured into pancreatic tissue and solidified, followed by suture and closing.
The mice after transplantation were divided into 4 groups (7 mice in one group), that is, an untreated group (Non treat); a group to which 250 mg/kg of Burdock Fruit extract (Kracie Pharm., GBS-01) containing 10% of arctigenin was orally administered every day (GBS-01); a group which was intraperitoneally given 150 mg/kg of gemcitabine (Eli Lilly & Co.) twice a week (Gemcitabine); and a group of combined administration of them(Combination), and the treatment was continued until all of the mice died.
The survival rate was calculated according to the Kaplan-Mayer method by making a curve of survival rate and calculating the median of survival rate (MST) (GraphPad-PRISM 6.2, MDF Co.). The significant difference was evaluated by means of Logrank (Mantel-COX) and Gehan-Breslow-Wilcoxon test. The calculated results were shown on an upper graph of FIG. 5.

[6] = Toxicity test by concomitant repeated-dose administration (Test Example 8); type: in vivo, mice; details: after 7 weeks
Protocol: SIX SCR-ICR mice (female of 6 weeks of age) (SLC Co.) were used in each of 4 groups, that is, (a) untreated group, (b) gemcitabine administered group, (c) Burdock Fruit extract administered group, and (d) group of combined administration of Burdock Fruit extract and gemcitabine (combined administration group). In each group, each of the therapeutic agents was administered continuously for a period of 7 weeks.
Burdock Fruit extract, 250 mg/kg prepared in Example 1 (25 mg/kg as arctigenin) , was orally administered 5 times a week. As gemcitabine, an intravenous drip preparation of gemcitabine (Eli Lilly and Co.) was used, and 100 mg/kg was intraperitoneally administered once a week.
During the term of administration for about 7 weeks, measurement of body weight, observation of skin and oral state, as well as observation of feces were practiced every 5 days. As a result, there was recognized no symptom which reminded any side effect such as inflammation in skin and mucous membrane, depilation or diarrhea in all of the administered groups. In addition, generally there was no difference of significance in body weight which is an indicator of nausea, loss of appetite, side effect in digestive system, and the like.
After termination of administration, the mice were anesthetized deeply, subjected to thoracotomy and complete blood drawing from heart. In addition, kidney, liver, spleen and lung were recovered, the weight was measured.
In addition, a hemocytic and biochemical examination was carried out using the collected blood.

tumor tissue [7] = experiment: Occurrence of ulcer in the tumor tissue (Test Example 2); type: in vivo; details: rate of mice which generated ulcer in the tumor; administration over 5 weeks
Excerpt: In the course of the growth of tumor, nutrition and oxygen have to be supplied over the grown entire tumor tissue through the blood vessels. In most of tumor, however, it is considered that these are not supplied sufficiently because of immature angioplasty to cause a partial necrosis of tissue and an ulcerous portion occurs. In this situation, in order to inspect the effect of normalization of intra-tumor blood stream by the above described Burdock Fruit extract, the occurrence of ulcer in the tumor tissue after the respective treatments was observed.
(§2) For tumor tissue, a single administration of a Burdock Fruit extract, a single administration of bevacizumab and a combined administration of a Burdock Fruit extract and bevacizumab were performed over a period of 5 weeks. […] Thus, the suppression effect on ulcer generation in tumor was recognized in the Burdock Fruit extract-administered group and the concomitantly administered group compared with that in the untreated group and the bevacizumab-administered group. In the bevacizumab-administered group, the inhibitory effect for ulcer generation was recognized in comparison with the untreated group, though it was temporal. This effect is considered to be an inhibitory activity of bevacizumab for angiogenesis. […]

tumor tissue [8] = experiment: Survival period after 5 weeks of treatment (Test Example 2); type: in vivo, mice; details: treatment terminated after 5 weeks, survival followed up
Protocol: as §2, with “angiogenesis. On the other hand, when the combined administration of a Burdock Fruit extract in addition to bevacizumab, the inhibitory effect on ulcer generation was raised. This is considered that, in addition to the improved effect for blood stream in tumor by a single preparation of bevacizumab, the blood stream was further improved by combined administration of a Burdock Fruit extract which suppressed an occurrence of a hypoxia and undernutritional region and further suppressed angiogenesis. Thus, since the combined administration of arctigenin can markedly reduce a hypoxia and undernutritional region, it is expected to suppress the malignant transformation of cancer.” for “angiogenesis.”

[9] = system: Human colorectal cancer cells LS174T; experiment: Tumor weight in mice transplanted subcutaneously with LS174T (Test Example 7); type: in vivo; details: after 4 weeks; extract 250 mg/kg oral 6 times a week, bevacizumab 5 mg/kg i.p. once a week
Protocol: (§3) On the 14th day, the transplanted mice were divided into 4 groups, that is, (a) an untreated group, (b) a bevacizumab-administered group, (c) a Gogoshi extract-administered group, and (d) a group of combined administration of a Burdock Fruit extract and bevacizumab (combined administration group), and the treatment was continued for 4 weeks. When a Burdock Fruit extract was administered, 250 mg/kg of Burdock Fruit extract (25 mg/kg as arctigenin) of Example 1 was orally administered 6 times a week. Bevacizumab, as Avastin for intravenous drip injection (100 mg/4 ml) (Chugai Pharm. Co.), was intraperitoneally injected at a dose of 5 mg/kg once a week.
After termination of the therapeutic test, the tumor weight was measured in the respective groups. As results, the tumor weight after termination of the therapeutic test was as follows: 2.51 g in the untreated group, 1.33 g in the bevacizumab administered group, 1.25 g in the Burdock Fruit extract administered group, and 0.68 g in the combined administration group. Accordingly, in any group including the bevacizumab administered group, the Burdock Fruit extract administered group and the combined administration group, the inhibition of increase of tumor weight was recognized compared with the untreated group. […]

[10] = system: Human colorectal cancer cells LS174T; experiment: Proportion of cancer stem cells in tumor by flow cytometry, LS174T (Test Example 7); type: in vivo, mice; details: after termination of the treatment test (4 weeks)
Protocol: as §3
The cancer cells were then recovered from the tumor tissue, and using the double positive markers, CD133 and CD44, the proportion of CD133^+, CD44^+ cells in tumor after termination of the treatment test was evaluated by means of a FACS ARIA II flow cytometer (BD bioscience).

[11] = gemcitabine 100 mg/kg i.p. once a week

Row | Molecule | average tumor size [1] | increase of signal intensity in the central part of tumor tissue (in words) [2] | tumor weight [3] | ratio of CD133+, CD44+ cells (double positive) in tumor [4] | ratio of CD44+, CD24+, CD326+ cells (triple positive) in tumor ([4]; average of 4 samples) | median of survival time (MST) ([5]; GBS-01 250 mg/kg oral every day, gemcitabine 150 mg/kg i.p. twice a week, until all mice died) | prolongation of MST ([5]; against the untreated group (65 days)) | hematocrit value (in words) [6] | hemoglobin value (in words) [6] | weight/body weight rate (%) of liver, lowering compared with the untreated group [6, 11] | weight/body weight rate (%) of spleen, lowering compared with the untreated group [6, 11] | number of erythrocytes compared with the untreated group ([6]; value as % of untreated) | number of leukocytes compared with the untreated group ([6]; value as % of untreated) | number of platelets compared with the untreated group ([6]; value as % of untreated) | ALT, rise compared to the untreated group ([6]; hepatopathy marker) | AST, rise compared to the untreated group ([6]; hepatopathy marker) | duration until the generation of ulcer reached 50% (tumor tissue [7]) | 50% survival period (tumor tissue [8]) | tumor weight [9] | proportion of CD133+, CD44+ cells (double positive) in tumor [10]
1 | Nc1ccn([C@@H]2O[C@H](CO)[C@@H](O)C2(F)F)c(=O)n1 [gemcitabine] | 68 mm^2 | no increase | 1.24 g | 3.5% | 1.6% | 86 days | 32.3% | lowering | lowering | about 20% | about 20% | approximately 87% | approximately 50% | approximately 70% | 102% | 46% |  |  |  | 
2 | bevacizumab | 56 mm^2 | tendency of increasing |  |  |  |  |  |  |  |  |  |  |  |  |  |  | 10 days | 107 days | 1.33 g | 0.552%

Reference: patent publication US9907852B2, “Anticancer agent and side-effect-alleviating agent” (National University Corporation University of Toyama, priority 2014, dated 2018)
